Reference: ChEMBL document CHEMBL1201862, “PubChem BioAssay data set” (2004)
Calls of active or inactive are those of the source.

What was measured:
[1] = inhibitors of HIV Env-driven cell fusion, dose response, cherry-pick (AID 652057); assay type: functional, cell-based
[2] = off-target signal loss in HeLa-CEM21 co-culture – HeLa F-luc CTL cells, cherry-picked, counter-screen for HIV-1 Env fusion inhibitor project, dose response (AID 652040); assay type: functional, cell-based;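 further: potency for signal decrease marking cytotoxic or nonspecific inhibition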
[3] = ZM109 Env clade C HIV-1 fusion inhibitors, dose response, HeLa effector, CEM target cells, luciferase, cherry-pick (AID 652058); assay type: functional, cell-based
[4] = Luminescence Cell-Based Dose Confirmation HTS to Identify Activators of 5'UTR Stem-Loop Driven Alpha-Synuclein mRNA Translation in H4 Neuroglioblastoma Cells. [Related pubchem assays: 1829 (Project Summary), 1814 (Primary HTS)]; assay type: functional
[5] = molecular target: Paired box protein Pax-8 (Homo sapiens, UniProt Q06710); assay: inhibitors of PAX8-driven TPO luciferase reporter, dose response, RMG-I cells, cherry-pick (AID 687027); assay type: functional, cell-based;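 further: luciferase reporter driven by Pax8 target thyroperoxidase promoter measured by SteadyGlo luminescence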
Sequence of Paired box protein Pax-8 (Q06710 whole entry): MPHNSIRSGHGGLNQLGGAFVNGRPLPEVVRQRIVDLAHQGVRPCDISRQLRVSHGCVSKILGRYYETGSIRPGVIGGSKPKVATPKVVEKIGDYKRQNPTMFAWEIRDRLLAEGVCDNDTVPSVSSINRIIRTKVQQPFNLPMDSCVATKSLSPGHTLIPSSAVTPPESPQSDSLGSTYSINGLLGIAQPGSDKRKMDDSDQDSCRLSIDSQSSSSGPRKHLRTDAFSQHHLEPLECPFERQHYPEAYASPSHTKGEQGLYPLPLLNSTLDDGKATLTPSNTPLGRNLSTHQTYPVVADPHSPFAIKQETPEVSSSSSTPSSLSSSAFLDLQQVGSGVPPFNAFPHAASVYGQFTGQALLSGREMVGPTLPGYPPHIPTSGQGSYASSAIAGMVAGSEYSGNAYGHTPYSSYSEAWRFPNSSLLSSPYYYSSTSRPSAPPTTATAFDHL

[6] = inhibitors of intracellular T. cruzi replication, confirmation, NIH3T3 host cells, beta-gal luminescence (AID 2044); assay type: functional, cell-based;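 further: intracellular parasites grown in NIH/3T3 mouse fibroblasts as host cells; luminescent beta-galactosidase reporter signal from transgenic T. cruzi replicating inside host cells; inhibitors lower the luminescence signal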
[7] = inhibitors of PGC1a acetylation in cells, dose response, cell-based, cherry-picked samples (AID 720514); assay type: functional;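 further: potency may reflect raised or lowered acetylation signal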
[8] = cytotoxicity toward NIH3T3 fibroblasts, dose response, counter-screen, cell-based, ATP luminescence, mouse fibroblasts (AID 2010); assay type: functional;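 further: cells exposed to compound for about 90 hours before reading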
[9] = tested on: H4; assay: Luminescence Cell-Based Dose Response HTS to Identify Activators of 5'UTR Stem-Loop Driven Prion Protein mRNA Translation in H4 Neuroglioblastoma Cells. [Related pubchem assays: 1829 (Project Summary), 1814 (Primary HTS)]; assay type: functional; settings: Homo sapiens
[10] = Luminescence Cell-Based Dose Response HTS to Identify Activators of Luciferase Translation or Activity in H4 […] Cells. [Related pubchem assays: 1829 (Project Summary), 1814 (Primary HTS)]; assay type: functional
[11] = molecular target: T1, Protein Tat (Human immunodeficiency virus type 1 group M subtype B (isolate HXB2)(HIV-1), UniProt P04608); assay type: functional;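 further: tat binding to TAR RNA read out by fluorescence polarization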
T1 sequence (P04608 whole entry): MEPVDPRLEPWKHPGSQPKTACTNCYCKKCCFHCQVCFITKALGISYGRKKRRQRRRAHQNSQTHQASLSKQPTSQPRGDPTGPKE

[12] = molecular target: Large T antigen (Simian virus 40, UniProt P03070); assay type: functional, Betapolyomavirus macacae;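 further: Confirmatory-stage PubChem screen for compounds that inhibit SV40 T antigen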
Sequence of Large T antigen (P03070 whole entry): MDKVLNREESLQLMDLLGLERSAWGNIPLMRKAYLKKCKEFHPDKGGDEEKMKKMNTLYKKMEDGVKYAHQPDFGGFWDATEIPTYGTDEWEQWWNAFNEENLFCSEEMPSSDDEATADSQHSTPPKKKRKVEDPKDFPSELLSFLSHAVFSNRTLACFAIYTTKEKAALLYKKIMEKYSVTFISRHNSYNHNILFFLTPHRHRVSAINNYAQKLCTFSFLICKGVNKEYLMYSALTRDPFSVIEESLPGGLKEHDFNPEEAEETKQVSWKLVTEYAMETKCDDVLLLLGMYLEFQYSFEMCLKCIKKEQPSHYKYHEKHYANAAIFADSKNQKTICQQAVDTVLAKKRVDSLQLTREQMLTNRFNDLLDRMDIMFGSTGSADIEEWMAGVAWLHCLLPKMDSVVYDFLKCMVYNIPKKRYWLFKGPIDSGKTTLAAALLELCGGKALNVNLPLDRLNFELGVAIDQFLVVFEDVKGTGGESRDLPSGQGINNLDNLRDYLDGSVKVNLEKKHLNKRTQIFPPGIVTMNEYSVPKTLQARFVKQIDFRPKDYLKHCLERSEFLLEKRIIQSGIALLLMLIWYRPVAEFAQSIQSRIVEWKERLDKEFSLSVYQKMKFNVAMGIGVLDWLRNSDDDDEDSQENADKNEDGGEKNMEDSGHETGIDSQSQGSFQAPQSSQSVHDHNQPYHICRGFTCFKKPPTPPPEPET

[13] = A549 cell cytotoxicity, dose response, cytotoxicity control, plate reader, cherry-pick, antagonist series (AID 743412); assay type: functional, cell-based
[14] = molecular target: Cytochrome P450 2C19 (Homo sapiens, UniProt P33261); assay: Cytochrome panel assay with activity outcomes. Panel member name: p450-cyp2c19 Compounds with AC50 equal or less than 10 uM are considered active; assay type: functional; settings: read-out: AC50
Sequence of Cytochrome P450 2C19 (P33261 whole entry): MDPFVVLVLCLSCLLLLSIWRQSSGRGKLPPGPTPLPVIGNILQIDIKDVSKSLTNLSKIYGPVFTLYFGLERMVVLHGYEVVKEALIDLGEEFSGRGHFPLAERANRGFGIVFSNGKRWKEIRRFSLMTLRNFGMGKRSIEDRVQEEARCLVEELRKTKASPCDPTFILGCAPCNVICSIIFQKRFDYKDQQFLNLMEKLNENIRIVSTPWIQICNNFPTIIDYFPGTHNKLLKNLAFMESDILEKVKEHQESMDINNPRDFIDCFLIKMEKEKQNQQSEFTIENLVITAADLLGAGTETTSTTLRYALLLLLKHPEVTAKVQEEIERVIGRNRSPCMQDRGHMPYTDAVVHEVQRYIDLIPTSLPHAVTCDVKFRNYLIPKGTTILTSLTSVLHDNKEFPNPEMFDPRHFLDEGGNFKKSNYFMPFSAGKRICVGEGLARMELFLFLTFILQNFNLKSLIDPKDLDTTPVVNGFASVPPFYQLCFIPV

[15] = molecular target: T2, Long-chain-fatty-acid--AMP ligase FadD28 (Mycobacterium tuberculosis, UniProt P9WQ59); assay: Fluorescence polarization aasay to screen for inhibitors that compete for the binding of FadD28 to a bisubstrate Measured in Biochemical System Using Plate Reader - 2147-01_Inhibitor_Dose_CherryPick_Activity.; assay type: functional, Mycobacterium tuberculosis H37Rv
T2 sequence (P9WQ59 whole entry): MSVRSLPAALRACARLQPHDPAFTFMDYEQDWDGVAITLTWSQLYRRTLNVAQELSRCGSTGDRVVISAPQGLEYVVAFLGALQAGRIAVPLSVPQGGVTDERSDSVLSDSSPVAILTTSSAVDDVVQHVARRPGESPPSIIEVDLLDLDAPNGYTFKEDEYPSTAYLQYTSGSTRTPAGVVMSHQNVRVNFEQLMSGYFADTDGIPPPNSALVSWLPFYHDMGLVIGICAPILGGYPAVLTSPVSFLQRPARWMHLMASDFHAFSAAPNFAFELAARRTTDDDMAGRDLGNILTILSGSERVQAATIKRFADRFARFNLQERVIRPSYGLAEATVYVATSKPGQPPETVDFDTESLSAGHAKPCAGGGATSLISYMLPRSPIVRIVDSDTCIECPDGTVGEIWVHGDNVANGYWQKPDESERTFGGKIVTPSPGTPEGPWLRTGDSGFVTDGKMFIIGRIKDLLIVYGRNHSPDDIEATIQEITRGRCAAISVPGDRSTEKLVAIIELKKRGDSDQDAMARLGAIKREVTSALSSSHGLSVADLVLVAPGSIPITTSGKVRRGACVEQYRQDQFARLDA

[16] = molecular target: T3, Calpain-2 catalytic subunit (Sus scrofa, UniProt P43367); assay: pig calpain II inhibitor potency, dose response, biochemical, fluorogenic peptide substrate (AID 1420); assay type: functional
T3 sequence (P43367 whole entry): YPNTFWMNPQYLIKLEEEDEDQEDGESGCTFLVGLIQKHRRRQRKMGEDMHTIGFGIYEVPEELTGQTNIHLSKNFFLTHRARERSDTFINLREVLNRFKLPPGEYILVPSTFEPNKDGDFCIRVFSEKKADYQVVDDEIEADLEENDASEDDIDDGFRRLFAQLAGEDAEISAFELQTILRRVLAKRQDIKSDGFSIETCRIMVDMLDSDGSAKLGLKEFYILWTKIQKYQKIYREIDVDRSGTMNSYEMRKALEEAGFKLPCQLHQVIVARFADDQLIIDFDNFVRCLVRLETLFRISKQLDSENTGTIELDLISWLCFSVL

[17] = cells; assay type: functional, cell-based
[18] = cells; assay type: functional, cell-based; remark: listed apart in the source
[19] = NIH:OVCAR-3 ovarian cancer cell cytotoxicity, dose response, PAX8 inhibitor project, plate reader, dry powder samples (AID 743044); assay type: functional, cell-based
[20] = cytotoxicity in OVCAR8 ovarian cancer cells, dose response, PAX8 project, cell-based, plate reader, dry powder samples (AID 743197); assay type: functional; settings: OVCAR-8
[21] = Shn3 3'UTR reporter inhibitors, dose response, cell-based, Clone20 osteoblasts, firefly luciferase, cherry-picked (AID 624132); assay type: functional;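 further: firefly luciferase luminescence from reporter carrying the Shn3 3'UTR in osteoblasts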
[22] = control 3'UTR Renilla luciferase suppression, dose response, counter-screen for Shn3 inhibitor project, cell-based, Clone20-Shn3RL, cherry-picked (AID 624133); assay type: functional
[23] = molecular target: T4, Heat shock factor protein 1 (Mus musculus, UniProt P38532); assay: HSF1 potentiators in luciferase reporter cells, confirmation, cell-based, NIH3T3, luminescence, dose retest (AID 435004); assay type: functional;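 further: stress induced by proteasome inhibitor MG132 added 30 min after compound; luciferase reporter driven by HSF1 response element in NIH3T3 cells; actives raise luminescence as potentiators of the MG132 stress response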
T4 sequence (P38532 whole entry): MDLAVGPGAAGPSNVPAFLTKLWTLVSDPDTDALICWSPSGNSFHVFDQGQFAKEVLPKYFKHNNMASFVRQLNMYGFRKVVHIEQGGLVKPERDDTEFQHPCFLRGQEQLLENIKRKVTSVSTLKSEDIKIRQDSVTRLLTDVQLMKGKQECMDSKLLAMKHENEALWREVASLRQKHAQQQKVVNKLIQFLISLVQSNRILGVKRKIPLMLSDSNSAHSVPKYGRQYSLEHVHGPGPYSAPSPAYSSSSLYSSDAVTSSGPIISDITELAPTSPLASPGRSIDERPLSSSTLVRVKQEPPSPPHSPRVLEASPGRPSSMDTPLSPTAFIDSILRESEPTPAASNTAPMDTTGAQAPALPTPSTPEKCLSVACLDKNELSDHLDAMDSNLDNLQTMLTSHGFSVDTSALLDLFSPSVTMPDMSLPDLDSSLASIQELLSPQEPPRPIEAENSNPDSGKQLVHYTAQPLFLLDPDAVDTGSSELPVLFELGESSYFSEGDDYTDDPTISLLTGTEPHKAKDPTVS

[24] = HepG2 cell cytotoxicity, dose response, cytotoxicity control for Shn3 inhibitor project, CellTiter-Glo, cherry-picked (AID 624134); assay type: functional, cell-based

Q: Which AC50 [1] does the source give for `CCOC(=O)c1ccc(NC2c3ncccc3C(=O)N2Cc2ccc(F)cc2)cc1` (stereo not drawn) here?
A: 3.06 µM (active)

Q: And the AC50 [2]?
A: 2.84 µM (active)

Q: What about the AC50 [3] of the same compound?
A: 0.521 µM (active)

Q: Which results are given for `N#CC1(NC(=O)Cn2ncc(Cl)c(Cl)c2=O)CCCCC1`?
A: EC50 [4]: > 120 µM (not active); AC50 [5]: 3.01 µM (active); EC50 [6]: 2.22 µM (active); AC50 [7]: 10.8 µM (active); EC50 [8]: 3.27 µM (active); EC50 [9]: > 120 µM (not active); EC50 [10]: > 60 µM (not active)

Q: Which results are given for `CCC(C)(C)n1nnnc1C(c1ccc2ncccc2c1)N1CCN(c2ccc(O)cc2)CC1` (stereo not drawn)?
A: IC50 [11]: > 100 µM (active); IC50 [12]: 34.6 µM (active)

Q: Which AC50 [13] does the source give for `CCC(=O)N(C)C[C@H]1Oc2cc(C#CCC(C)C)ccc2S(=O)(=O)N([C@H](C)CO)C[C@@H]1C` here?
A: 32.1 µM (active)

Q: What does the source list for `Cc1cccc(NC(=O)Cn2c(=O)n3nc(CCn4nc(C)cc4C)nc3c3ccccc32)c1`?
A: AC50 [14]: 0.0355 µM (inconclusive); AC50 [15]: 44.4 µM (active)

Q: For `O=C(COn1nnc2ccc(Cl)cc21)NC12CC3CC(CC(C3)C1)C2`, which AC50 [7] is on record?
A: 31.5 µM (active)

Q: And the IC50 [16]?
A: > 50 µM (not active)

Q: Which EC50 [17] does the source give for `CCCC1CCC(=C(C#N)C(N)=O)CC1` (stereo not drawn) here?
A: 41.6 µM (active)

Q: And the EC50 [18]?
A: > 350 µM (not active)

Q: For `C[C@H]1CCCCO[C@@H](CN(C)Cc2ccc(C(F)(F)F)cc2)[C@@H](C)CN([C@@H](C)CO)C(=O)c2cc(NC(=O)Nc3ccc(F)cc3)ccc2O1`, which AC50 [5] is on record?
A: 5.26 µM (active)

Q: What about the AC50 [19] of the same compound?
A: 66.3 µM (active)

Q: What about the AC50 [20] of the same compound?
A: 56 µM (active)

Q: Which AC50 [15] does the source give for `Nc1nc(-c2cccs2)c(-c2cccs2)s1` here?
A: > 100 µM (inactive)

Q: Which AC50 [21] does the source give for `Fc1ccc(/C=C2\CCCC3=C2Nc2ncnn2C3c2ccc(F)cc2)cc1` (stereo not drawn) here?
A: 8.47 µM (active)

Q: What about the AC50 [7] of the same compound?
A: 9.46 µM (active)

Q: What about the AC50 [22] of the same compound?
A: 11.3 µM (active)

Q: What about the EC50 [23] of the same compound?
A: 20.7 µM (active)

Q: What about the AC50 [24] of the same compound?
A: 37.9 µM (active)
